Measurements: patent US20060183773A1, “Uses of methylphenidate derivatives” (priority 2005, published 2006)

Columns and labels:
Format in all cases: cell-based, human
IL-8 [1] = assay: IL-8 release from LPS-stimulated THP-1 monocytes, ELISA; conditions: THP-1, LPS 200 ng/ml, Cpd II 15 μg/ml, Dex 10 μM
Procedure: (§1) THP-1 is a monocyte cell line obtained from American Type Culture Collection (ATCC) (catalog no. TIB-202). […] After 1 hour, lipopolysaccharide (LPS) (obtained from Sigma) was added to the cultures to give a final concentration of 200 ng/ml, and the cells were then incubated for an additional 4 hours or for an additional 24 hours. After the incubation, the cells were centrifuged, and the supernatants were collected. The concentrations of IL-8 and TNFα in the supernatants were determined by ELISA.
The concentrations of IL-8 in the supernatants were determined by ELISA performed as described in Example 4.

TCR-positive cells = assay: Annexin staining of TCR-positive PBL, flow cytometry (cell death); conditions: PHA 5 μg/ml plus 10 μM dexamethasone; printed as decreased from 84%
Procedure: After this incubation, PHA was added to give a final concentration of 5 μg/ml, and the cells were incubated for an additional 72 hours at 37° C., 5% CO2. All cultures were performed in triplicate. Cells were then removed by centrifugation at 1000 rpm for 10 minutes.
The cells were further analyzed by flow cytometry. Annexin was used to determine populations of dead or dying cells. Anti-CD69 antibody was used to establish the level of cellular activation. Antibody to T-cell receptor αβ (TCR) was also used. Recombinant Annexin 5 (PE and FITC conjugates) and the antibodies were all purchase from Caltag (Burlingham, Calif.) and used following the manufacturer's recommendations.

TNFα = TNFα release from LPS-stimulated THP-1 monocytes, ELISA; conditions: THP-1, LPS 200 ng/ml, 24 hours; Cpd II 15 μg/ml, Dex 10 μM; LPS alone 138.655
Procedure: as §1
The TNFα ELISA was performed as described in Example 2.

c-Jun = c-Jun in VEGF-treated HUVECs, TransAM AP-1 assay; conditions: VEGF 10 ng/ml + 10 μM, control 0.204, VEGF only 0.261
Procedure: The flasks were incubated overnight at 37° C., 5% CO2 After this incubation, vascular endothelial growth factor (VEGF) (obtained from Sigma) was added to give a final concentration 10 ng/ml, and the flasks were incubated for an additional 30 minutes.
The amount of c-Jun was determined using a TransAM™ AP-1 Family Transcription Factor Assay Kit and a Nuclear Extract Kit from Active Motif North America, Carlsbad, Calif., according to manufacturer's instructions. Briefly, a nuclear extract of the cells was prepared using the Nuclear Extract Kit. Then, the nuclear extract was added to the wells of a 96-well plate in which oligonucleotide containing a TPA-responsive element (TRE) was immobilized. Activator protein-1 (AP-1) dimers contained in the nuclear extract were bound to this oligonucleotide and were detected using an antibody specific for c-Jun. A secondary antibody conjugated to horseradish peroxidase (HRP) was next added to provide a colorimetric readout that was quantified by spectrophotometry (measurement at 450 nm).

NFκB [2] = assay: Activated NFκB in VEGF-treated HUVECs, TransAM assay; conditions: VEGF 10 ng/ml + 10 μM, control 0.070, VEGF only 0.111
Procedure: Passage 5 HUVECs, human source lot number 8750 (obtained from ATCC), were grown to confluence in 25 cm^2 flasks in EGM-2 medium. The following additives were added to the flasks (total volume of 5 ml/flask) in EGM-2 medium containing 2% FCS, GA1000 (gentamycin), heparin and ascorbic acid (all from Cambrex): 1 μg/ml of the compound of formula II (Cpd II); 5 μg/ml Cpd II; 15 μg/ml of Cpd II; 15 μg/ml methylphenidate (MP); or 10 μM LY 294002. The flasks were incubated overnight at 37° C., 5% CO2 After this incubation, vascular endothelial growth factor (VEGF) (obtained from Sigma) was added to give a final concentration 10 ng/ml, and the flasks were incubated for an additional 30 minutes.
(§2) Then, the amount of NFκB was determined using a TransAM™ NFκB p65/NFκB p50 Transcription Factor Assay Kit and a Nuclear Extract Kit from Active Motif North America, Carlsbad, Calif., according to the manufacturer's instructions. Briefly, a nuclear extract of the cells was prepared using the Nuclear Extract Kit. Then, the nuclear extract was added to the wells of the 96-well plate of the TransAM™ kit. Oligonucleotide containing an NFκB consensus binding site was immobilized in the wells, and the activated NFκB contained in the nuclear extract was bound to the oligonucleotide. Then, an antibody directed against the NFκB p65 or p50 subunit was added, and the NFκB complex bound to the oligonucleotide was detected. A secondary antibody conjugated to horseradish peroxidase (HRP) was next added to provide a colorimetric readout that was quantified by spectrophotometry (measurement at 450 nm).

NFκB [3] = assay: Activated NFκB in TNFα- or VEGF-treated HIAECs, TransAM assay; conditions: TNFα + LY 294002, control 0.174, TNFα only 0.881
Procedure: as §2
Passage 8 (human iliac artery endothelial cells (HIAECs) (obtained from ATCC; catalog no. CC-2545) were grown to confluence in 25 cm^2 flasks in EGM-2 medium. Eighteen hours prior to the experiment, the medium was replaced with EGM-2 medium containing 0.1% FCS plus heparin, GA1000 (gentamycin) and bovine pituitary extract (all from Cambrex) to place the cells in a resting state. To perform the experiment the medium was aspirated from the flasks, and the following additives were added to the flasks in fresh medium (total volume of 5 ml/flask): 15 μg/ml of the compound of formula II (Cpd II) or 10 μM LY 294002. The flasks were incubated 2 hours at 37° C., 5% CO2 After this incubation, VEGF or TNFα was added to give a final concentration 10 ng/ml, and the flasks were incubated for an additional 30 minutes. Then, the amount of NFκB was determined using a TransAM™ NFκB p65/NFκB p50 Transcription Factor Assay Kit and a Nuclear Extract Kit from Active Motif North America, Carlsbad, Calif., as described in Example 9.

IL-8 [4] = assay: IL-8 release by TNFα-stimulated HUVECs, ELISA; conditions: 10 ng/ml TNFα + 10 μM; 18 hours; TNFα + water 35572
Procedure: Passage 4 HUVECs, human source lot number 8710 (obtained from ATCC), were put into the wells of a 24-well tissue culture plate at 5,000 cells/well in EGM-2 medium (obtained from Cambrex) and cultured for 72 hours at 37° C. and 5% CO2. […] After incubation for 1 hour at 37° C. and 5% CO2, TNFα (obtained from Pierce) was added to give a final concentration of 10 ng/ml, and the cells were incubated for an additional 18 hours at 37° C. and 5% CO2. After this incubation, the supernatants were collected, and the amount of IL-8 in the supernatants determined by ELISA as described in Example 4.

SMILES | % Inhibition (IL-8) (IL-8 [1]; 4 hours) | % Inhibition (IL-8) (IL-8 [1]; 24 hours) | Mean IL-8 Concentration (IL-8 [1]; 24 hours, LPS alone 6653.20) | Annexin staining of TCR-positive cells (TCR-positive cells) | Mean TNFα Concentration (TNFα) | Mean OD 450 nm (c-Jun) (c-Jun) | Mean OD 450 nm (NFκB) (NFκB [2]) | Mean OD 450 nm (NFκB) (NFκB [3]) | Mean IL-8 (IL-8 [4])
C[C@@H]1C[C@H]2[C@@H]3CCC4=CC(=O)C=C[C@]4(C)[C@@]3(F)[C@@H](O)C[C@]2(C)[C@@]1(O)C(=O)CO [dexamethasone, reference compound] | 26% | 66% | 2300.00 ± 283.41 pg/mL | 48% | 94.759 ± 8.755 pg/mL |  |  |  | 
O=c1cc(N2CCOCC2)oc2c(-c3ccccc3)cccc12 [LY 294002, reference compound] |  |  |  |  |  | 0.340 ± 0.020 | 0.138 ± 0.008 | 0.810 ± 0.007 | 9196.1 ± 150.97 pg/mL
